{"source": "paper PMC8635417", "about": "(Communications Biology, 2021)", "key": {"M2R [1]": {"biological_target": "T1, M2R (Homo sapiens, UniProt P08172)", "T1 construct": "expressed in transfected cells; host or cells: HEK293A", "T1 sequence (P08172 1-466)": "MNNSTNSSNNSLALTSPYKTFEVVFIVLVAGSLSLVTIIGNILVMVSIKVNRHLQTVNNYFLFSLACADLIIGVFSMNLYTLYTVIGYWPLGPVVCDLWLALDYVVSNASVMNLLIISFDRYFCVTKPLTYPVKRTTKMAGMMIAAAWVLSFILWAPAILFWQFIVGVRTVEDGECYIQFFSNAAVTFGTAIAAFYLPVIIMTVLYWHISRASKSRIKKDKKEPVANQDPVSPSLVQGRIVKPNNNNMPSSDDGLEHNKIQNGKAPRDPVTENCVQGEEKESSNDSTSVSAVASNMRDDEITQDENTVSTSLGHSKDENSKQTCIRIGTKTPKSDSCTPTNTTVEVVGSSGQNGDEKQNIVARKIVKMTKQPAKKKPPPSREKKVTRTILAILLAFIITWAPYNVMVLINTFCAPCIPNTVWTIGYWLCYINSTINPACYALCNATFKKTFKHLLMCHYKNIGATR", "test": "NanoBiT G-protein dissociation assay (Gi activation)", "type": "cell-based", "conditions": "HEK293A cells expressing M2R and NanoBiT-Gi1; for Gi-protein activity relative to ACh (in words): Fig. 3a", "description": "M2R-induced G-protein dissociation was measured by a NanoBiT-G-protein dissociation assay, in which the interaction between a Gα subunit and a Gβγ subunit was monitored by the NanoBiT system (Promega). Specifically, a NanoBiT-Gi1 protein consisting of Gαi1 subunit fused with a large fragment (LgBiT) at the α-helical domain and an N-terminally small fragment (SmBiT)-fused Gγ2 subunit with a C68S mutation was expressed along with untagged Gβ1 subunit and M2R. HEK293A cells were seeded in a 10-cm culture dish at a concentration of 2 × 10^5 cells mL^−1 (10 mL per well in DMEM (Nissui) supplemented with 10% fetal bovine serum (Gibco), glutamine, penicillin, and streptomycin), 1 day before transfection. Transfection solution was prepared by combining 25 µL (per dish hereafter) of polyethylenimine (PEI) Max solution (1 mg mL^−1; Polysciences), 1 mL of Opti-MEM (Thermo Fisher Scientific), and a plasmid mixture consisting of 1 µg M2R (or an empty plasmid for mock transfection), 500 ng LgBiT-containing Gαi1 subunit, 2.5 µg Gβ1 subunit, and 2.5 µg SmBiT-fused Gγ2 subunit (C68S). After an incubation for 1 day, the transfected cells were harvested with 0.5 mM EDTA-containing Dulbecco’s PBS, centrifuged and suspended in 10 mL of HBSS containing 0.01% bovine serum albumin (BSA; fatty acid–free grade; SERVA) and 5 mM HEPES (pH 7.4) (assay buffer). The cell suspension was dispensed in a white 96-well plate at a volume of 80 µL per well and loaded with 20 µL of 50 µM coelenterazine (Carbosynth) diluted in the assay buffer. After a 2 h incubation at room temperature, the plate was measured for baseline luminescence (Spectramax L, Molecular Devices) and a titrated test ligand (20 µL; […] of final concentrations) was manually added. The plate was immediately read at room temperature for the following 5 min as a kinetics mode, at measurement intervals of 20 s. The luminescence counts over 3–5 min after ligand addition were averaged and normalized to the initial count. The fold-change values were further normalized to that of vehicle-treated samples and used to plot the G-protein dissociation response. Using the Prism 8 software (GraphPad Prism), the G-protein dissociation signals were fitted to a four-parameter sigmoidal concentration-response curve."}, "M2R [2]": {"tested_on": "M2R", "test": "Ligand binding-induced difference ATR-FTIR spectroscopy, amide-I band", "set-up": "species or system human", "conditions": "lipid-reconstituted M2R-BRIL, 293 K; for population of active-like M2R conformation from amide-I band ratio (in words): 1 mM ligand; for ligand efficacy class suggested by amide-I spectral features: H2O, compared with Scop- and NMS-bound spectra", "description": "Red and purple lines correspond to ACh- and Atro-bound spectra, respectively. To quantitatively examine the change in the amide-I band specific to ligand efficacy, the ratio between the band strength of (2)1656 (+)/(1)1666 (−) cm^−1 of ACh-bound spectra at high frequency and (2)1656 (+)/(3)1640 (−) cm^−1 of ACh-bound spectra at low frequency is calculated and reported as efficacy rate. b Ligand-dependent spectral changes of amide-I band originating from C=O stretch of α-helix in 1700–1620 cm^−1 region. Red, orange, and purple lines correspond to agonist-, partial agonist-, and antagonist-bound spectra, respectively. […] The error values were calculated from three replicate experiments. Cyan dotted line indicates the value = 1.\nThe ratio of the amide-I band was assumed to be the ligand efficacy (Fig. 2b, c). Strikingly, all agonists have an amide-I band ratio >1. The amide-I band ratio for both the partial agonists and the antagonists were <1, with the exception of Xano.\nA 2 μL aliquot of the lipid-reconstituted M2R suspensions was placed on the surface of a silicon ATR crystal (three internal total reflection, Smith Detection, UK. After it was dried in a gently natural drying, the sample was rehydrated with a solvent containing 200 mM phosphate (pH 7.5) buffer with 140 mM NaCl, 3 mM MgCl2 at a flow rate of 0.6 mL min^−1 through a flow cell, of which the temperature was maintained at 20 °C by circulating water. ATR-FTIR spectra were first recorded at 2 cm^−1 resolution, using an FTIR spectrometer (Bio-rad FTS7000, Agilent, CA, USA) equipped with a liquid nitrogen-cooled MCT detector (an average of 768 interferograms). After the FTIR spectrum had been recorded in the second buffer with 1 mM ligand, the difference FTIR spectrum was calculated by subtracting the data obtained for the first and second buffer. The cycling procedure was repeated two to seven times, and the difference spectra were calculated as the average of the presence minus absence spectra of ligand. The spectral contributions of the unbound ligand, the protein/lipid shrinkage, and water/buffer components were corrected (Supplementary Figure 2–5)."}, "M2R [3]": {"tested_on": "M2R", "conditions": "1 mM ligand, buffer exchange without ligand; cited from earlier work"}, "M2R [4]": {"tested_on": "M2R", "test": "Ligand dissociation kinetics from time-course ATR-FTIR (amide-I band)", "type": "binding, human", "conditions": "1 mM ligand washed out by buffer exchange, 0.6 mL min-1, 20 °C; single exponential fit", "description": "Each ligand (1 mM concentration) is added at 30 min time point and is washed out at 90 min time point by exchanging to the buffer without ligand at a flow rate of 0.6 mL min^−1 through a flow cell, of which the temperature is maintained at 20 °C by circulating water. […] Ligand dissociation phase is highlighted by light blue. b Time trace of the integrated absorbance signal at dissociation phase in the amide-I band for each ligand. […] Dotted lines represent the fitting curve obtained by single exponential function.\nAfter the FTIR spectrum had been recorded in the second buffer with 1 mM ligand, the difference FTIR spectrum was calculated by subtracting the data obtained for the first and second buffer. The cycling procedure was repeated two to seven times, and the difference spectra were calculated as the average of the presence minus absence spectra of ligand. The spectral contributions of the unbound ligand, the protein/lipid shrinkage, and water/buffer components were corrected (Supplementary Figure 2–5).\nAll functional and statistical data were analyzed using GraphPad Prism v.9.0 (Graphpad Software) and shown as mean ± s.e.m. from at least three independent experiments. Dissociation kinetics curves were evaluated with a single exponential function."}, "M2R [5]": {"tested_on": "M2R", "set-up": "method as in PMID 23441648", "conditions": "super agonist of M2R; cited from earlier work"}}}
{"molecule": "CN1[C@@H]2C[C@@H](OC(=O)[C@H](CO)c3ccccc3)C[C@H]1[C@@H]1O[C@@H]12", "note": "[Scop, Scopolamine]", "values": [{"measurement": "Gi-protein activity relative to ACh (in words)", "setting": "M2R [1]", "value": "undetectable"}]}
{"molecule": "CC(C)[N+]1(C)[C@@H]2CC[C@H]1C[C@@H](OC(=O)C(CO)c1ccccc1)C2", "note": "(some centres unmarked) [Ipra, Ipratropium]", "values": [{"measurement": "Gi-dissociation activity (Emax normalized to ACh)", "setting": "M2R [1]; Span normalized to ACh", "value": "6.3 % of ACh"}, {"measurement": "population of active-like M2R conformation from amide-I band ratio (in words)", "setting": "M2R [2]", "value": "higher ratio of active conformation than Atro and Scop"}]}
{"molecule": "CCCC[N+]1(C)C2CC(OC(=O)C(CO)c3ccccc3)CC1C1OC12", "note": "(centres unmarked) [NBS, N-butylscopolamine]", "values": [{"measurement": "ligand efficacy class suggested by amide-I spectral features", "setting": "M2R [2]", "value": "antagonist"}]}
{"molecule": "CN1[C@@H]2CC[C@H]1C[C@@H](OC(=O)C(CO)c1ccccc1)C2", "note": "(some centres unmarked) [Atro, atropine]", "values": [{"measurement": "amide-I band intensity during dissociation phase after buffer exchange", "setting": "M2R [3]", "value": "did not decrease"}]}
{"molecule": "C[N+](C)(C)CC#CCOC(=O)Nc1cccc(Cl)c1", "note": "[McN, McN-A-343]", "values": [{"measurement": "dissociation kinetics (koff) from M2R (in words)", "setting": "M2R [4]", "value": "fast dissociation kinetics"}, {"measurement": "Gi-protein activity relative to ACh (in words)", "setting": "M2R [1]", "value": "decreased Gi signalling relative to ACh"}]}
{"molecule": "CC(=O)OC(C)C[N+](C)(C)C", "note": "(centres unmarked) [Meta, Metacholine]", "values": [{"measurement": "Gi-protein activity relative to ACh (in words)", "setting": "M2R [1]", "value": "almost identical Gi-protein activity as ACh"}]}
{"molecule": "CC(=O)OCC[N+](C)(C)C", "note": "[ACh, acetylcholine]", "values": [{"measurement": "amide-I band intensity during dissociation phase after buffer exchange", "setting": "M2R [3]", "value": "decreased gradually"}]}
{"molecule": "C[N+](C)(C)CC#CCOC1=NOCC1", "note": "[Ixo, Iperoxo]", "values": [{"measurement": "dissociation kinetics (koff) from M2R (in words)", "setting": "M2R [4]", "value": "slowest dissociation kinetics"}, {"measurement": "Gi-protein activity relative to ACh (in words)", "setting": "M2R [1]", "value": "higher G-protein activation than ACh"}, {"measurement": "potency relative to ACh", "setting": "M2R [5]", "value": 100, "unit": "fold"}]}
{"molecule": "C[N+](C)(C)CCOC(N)=O", "note": "[Carb, Carbamylcholine]", "values": [{"measurement": "Gi-protein activity relative to ACh (in words)", "setting": "M2R [1]", "value": "almost identical Gi-protein activity as ACh"}]}
{"molecule": "CC[N+]1(C)[C@@H]2CC(OC(=O)[C@H](CO)c3ccccc3)C[C@H]1[C@@H]1O[C@@H]12", "note": "(some centres unmarked) [Oxitro, Oxitropium]", "values": [{"measurement": "ligand efficacy class suggested by amide-I spectral features", "setting": "M2R [2]", "value": "inverse agonist"}]}
{"molecule": "CCCCCCOc1nsnc1C1=CCCN(C)C1", "note": "[Xano, Xanomeline]", "values": [{"measurement": "dissociation kinetics (koff) from M2R (in words)", "setting": "M2R [4]", "value": "extremely slow"}, {"measurement": "Gi-protein activity relative to ACh (in words)", "setting": "M2R [1]", "value": "decreased Gi signalling relative to ACh"}, {"measurement": "population of active-like M2R conformation from amide-I band ratio (in words)", "setting": "M2R [2]", "value": "higher population of active-like M2R conformation"}]}
